The source of these data is patent US20050130902A1, “Peptide compounds for counteracting reactive oxygen species and free radicals” (priority 2001, published 2005).

Where “and” joins values, the source holds several entries; their conditions need not be identical. Equal entries are not always repeated. No end group written: not given here.

Test [1] has as its system SOD. In words: SOD level in brain of old C57 Black mice, 14 days oral gavage on various schedules. To be noted: 18-month old mice. Type of test: in vivo. On the procedure:
Adult 18-month old C57 Black mice (“old mice”) were treated with 0.25 mg/kg of PEP-1 by oral gavage for a period of 14 days. The animals belonged to the following 5 treatment groups (n=3 per group): • Group 1: Control, untreated • Group 2: Treatment once per week • Group 3: Treatment twice per week • Group 4: Treatment every other day • Group 5: Daily treatment
At the end of 14 days, all animals were sacrificed and their brains were harvested and the SOD level was analyzed by Western immunoblot as described above. A SOD standard (“M”) was also run alongside the samples. The SOD levels were quantitated by densitometry measurements of the blot.

A further test concerns CAT. Put plainly: In vivo CAT upregulation in rat brain and heart after iv injection (Western immunoblot). Also on record: species or system Sprague-Dawley rats. The settings on record: 1.2 mg/kg iv, 6 hours post injection. On the procedure:
(§1) In vivo experiments were carried out in Sprague-Dawley rats (300-325 g) with solutions of peptide compounds PEP-1 and PEP-3. The animals were injected intravenously (iv) via the tail vein with a peptide compound. Each animal received one injection of peptide compound in normal saline at total dose equivalent of 1.2 or 2.4 mg peptide compound/kg body weight. The animals were sacrificed by decapitation at 6 hours post injection and dissected to isolate brain and heart organs, which were frozen at −70° C. for subsequent analysis by Western immunoblots.
(§2) Each tissue was thawed and homogenized in a Down's homogenizer using ten volumes of homogenizer buffer (see, Adams et al., […], 77: 221-233 (2000); buffer as described in Adams et al., J. Leukoc. Biol., 62: 865-875 […]) to obtain a crude cytoplasmic fraction. The tissue homogenates were centrifuged (14,000×g for 5 minutes at 4° C.) to yield the supernatant purified cytoplasmic protein fractions for Western immunoblot analysis as described in Adams et al. (J. Cell. Biochem., 77: 221-233 (2000)). A 10 μg sample of each protein fraction was then separated by SDS polyacrylamide gel electrophoresis (SDS-PAGE) and analyzed for SOD and CAT content by Western blot assay as above.
(§3) Controls for measurement of unstimulated levels of SOD were obtained from two vehicle-only (i.e., no peptide compound), injected rats that were sacrificed at 6 hours post injection. Both had essentially the same unstimulated level of SOD. Standard quantities of each cytoplasmic fraction (10 μg) were loaded on a lane of a gel for electrophoretic separation and Western immunoblot analysis (Adams et al., J. Cell. Biochem., 77: 221-233 (2000)). The stained gels were photographed and scanned by laser densitometry to quantify intensities in comparison to enzyme levels for control vehicle treated rats.

The test system of test [2] is SOD. Put plainly: SOD level in brain of old C57 Black mice, 30 days daily oral gavage. The settings on record: 18-month old mice. It counts as in vivo. On the procedure: As a further examination of the dose-response effect on upregulating SOD in “old” adult C57 Black mice, young and old animals were divided into the following treatment groups (n=3): • Animals 1-3: Young, 4-month old mice, untreated • Animals 4-6: Old, 18-month old mice, untreated • Animals 7-9: Old, 18-month old mice treated daily by oral gavage 0.33 mg/kg of PEP-1 • Animals 10-1 2: Old, 18-month old mice treated daily by oral gavage 3.3 mg/kg of PEP-1
At the end of 30 days, all animals were sacrificed and their brains were harvested. SOD level was analyzed by Western immunoblot. A SOD standard (“M”) was also run alongside the samples. The SOD levels were quantitated by densitometry measurements of the immunoblot.

Test [3] in a line: Survival (longevity) of old C57 Black mice over 70-day treatment. The settings on record: old 16-month mice. It counts as in vivo. From the text: This study was designed to examine the in vivo effect of daily administration of a representative peptide compound, PEP-1, to reverse age-related declines in spontaneous behavioral arousal as measured by effect on locomotor activity and longevity of “old” adult individuals. In this study, C57 Black mice were divided into the following treatment groups (n=10 per group): • Group 1: Young, 4-month old mice, untreated • Group 2: Old, 16-month old mice, untreated • Group 3: Old, 16-month old mice treated daily by oral gavage with 0.025 mg/kg of PEP-1
Group 4: Old, 16-month old mice treated daily by oral gavage with 0.075 mg/kg of PEP-1 • Group 5: Old, 16-month old mice treated daily by oral gavage with 0.25 mg/kg of PEP-1 • Group 6: Old, 16-month old mice treated daily by oral gavage with 0.75 mg/kg of PEP-1 • Group 7: Old, 16-month old mice treated daily by oral gavage with 2.5 mg/kg of PEP-1
At the end of a 70-day treatment period, all of the young, untreated mice (Group 1) were alive (i.e., to an age of 6.5 months), but 3 of the 10 untreated old mice (Group 2) had died. Also, 2 animals in each of Groups 3 and 4 died during this same period.

The nature of test [4]: Locomotor activity test (spontaneous behavioral arousal) in old C57 Black mice. Type of test: in vivo. On the procedure:
Six weeks after assignment of the doses, surviving animals were examined in a standard locomotor activity test used to detect evidence of a reversal of age-related declines in spontaneous behavioral arousal (Forster et al., 1996; Dubey et al., Arch. Biochem. Biophys., 333: 189-197 (1996)). Arousal levels were measured using a Digiscan apparatus (Omnitech, model RXYZCM, Omnitech Electronics, Columbus, Ohio, USA). Each mouse was placed in a clear acrylic chamber (40.5 cm×40.5 cm×30.5 cm) for a […] session. The acrylic chamber was placed in a metal frame lined with arrays of photocells. A wooden cabinet with sheets of insulation enclosed the acrylic chamber and the metal frame. Fans provided an 80-db ambient noise level within the chamber. Movements of the mouse within the horizontal plane interrupted the photobeams, which were automatically recorded by a computer within 1-minute time samples. The measure used in this study was the average horizontal photobeam interruptions per minute, over a 16-minute testing session (horizontal counts/min).
The locomotor activity test was performed on blinded Groups 1, 2, 3, 4, 5, and 6, (young untreated control, old untreated control, old treated with PEP-1 at 0.025 mg/kg 0.075 mg/kg, 0.25 mg/kg, and 0.75 mg/kg, respectively) six weeks after assignment of the doses. A significant difference between the young and old untreated control groups was found (p<0.05), verifying previous findings of the age-associated decrease in spontaneous behavioral arousal.

The test system of test [5] is SOD. In words: In vivo SOD upregulation in rat brain and heart after iv injection (Western immunoblot). Also on record: species or system Sprague-Dawley rats. To be noted: 1.2 mg/kg iv, 6 hours post injection. As to the method:
as §1, §2, §3

In a further test the test system is SOD-1. In words: PEP-2-dependent upregulation of SOD-1 in rat cortical cell cultures (Western immunoblot, densitometry). It counts as cell-based. To be noted: 5 hours, rat brain cortical cells, vs vehicle control. On the procedure:
Primary cortical cultures were obtained by growing newborn rat brain cortical cells in Delbecco's modified Eagle medium supplemented with 100 units/ml of penicillin G, 100 μg/ml of streptomycin, and 10% fetal calf serum. The cells were isolated from the E-21 cortex of rat brain, plated at a density of 1×10^5 per ml and grown to confluence within four to five days in an atmosphere containing air and 5% CO2 at 37° C. as described in Cornell-Bell et al., Science, 247: 470473 (1990) and Cell Calcium, 12: 185-204 (1991). Cultures were grown in 20 ml flasks as a monolayer and then exposed to various concentrations of peptide for studies of the effects of PEP-2 on upregulation of the gene for SOD. Cultures of the rat brain cortical cells were incubated with 1 ng/ml, 10 ng/ml, and 100 ng/ml of peptide compound PEP-2 for durations of 5 hours. Control cultures were treated in the same manner, but were not incubated with PEP-2.
Cytoplasmic proteins were isolated according to published methods (Adams et al., J. Leukoc. Biol. 62: 865-873 (1997)). The cell cultures were washed once in phosphate buffer saline (PBS) containing 20 mM EDTA and then suspended in 250 μl of freshly prepared lysis buffer (20 mM Hepes, pH 7.9, 10 mM KCl, 300 mM NaCl, 1 mM MgCl2, 0.1% Triton X-100 nonionic detergent, 20% glycerol, 0.5 mM dithiothreitol (DTT), freshly supplemented with inhibitors as described in Adams et al., J. Biol. Chem., 77: 221-233 (2000)). The suspensions were then incubated for at least 10 minutes on ice to lyse cells and then centrifuged (14,000×g for 5 minutes at 4° C.) to pellet cell debris. The supernatant cytoplasmic fractions were removed and stored as aliquots at −80° C. for analysis. […]
The cytoplasmic proteins were separated by SDS-PAGE using 5 μg/lane on the gels for analysis by Western immunoblots. […] SOD expression was detected in the Western blots using anti-SOD rabbit polyclonal antibody (Rockland, Inc., Gilbertville, Pa.). The Western blots were also analyzed by laser densitometry to quantify SOD protein upregulation. […]

Take [Ac] Asp Gly Glu Ala (Ac-DGEA) [PEP-1]: the “SOD level elevation compared to control group” value in the test with SOD [1] (0.25 mg/kg oral gavage daily) and with SOD [1] (0.25 mg/kg oral gavage every other day) was “over 4.5 fold” throughout. Further, the “increase in SOD level compared to control group” value with SOD [1] (0.25 mg/kg oral gavage twice per week) came out at 2.3 fold. Also, the “CAT (Fold increase)” value in the test on CAT (rat brain) came to 1.0 fold; in the test on CAT (rat heart) it was 1.1 fold. Besides, the “increase in SOD level compared to untreated old control” value in the test with SOD [2] (0.33 mg/kg oral daily) came to 2.9 fold. The “level of SOD expression in brain tissue compared to untreated old control” value in the test on SOD [2] (3.3 mg/kg oral daily) turned out to be 4.8 fold. Besides, the SOD-related breakdown fragments entry in the test on SOD [2] (brain, 0.33 or 3.3 mg/kg oral daily) is given as “no change”. For the same substance, the “animals that died during 70-day treatment period” value amounted to 2 animals in test [3] (0.025 mg/kg daily oral gavage, n=10 (Group 3)) and 2 animals in test [3] (0.075 mg/kg daily oral gavage, n=10 (Group 4)). In addition, the “survival over 70-day treatment period” value is “all of the old mice treated with PEP-1 survived” in test [3] (0.25 mg/kg daily oral gavage, n=10 (Group 5)); “all of the old mice treated with PEP-1 survived” in test [3] (0.75 mg/kg daily oral gavage, n=10 (Group 6)); “all of the old mice treated with PEP-1 survived” in test [3] (2.5 mg/kg daily oral gavage, n=10 (Group 7)). Also, the “horizontal locomotor activity (horizontal counts/min)” value is listed as “failed to differ significantly from the old controls” in test [4] (0.025 mg/kg daily oral, six weeks (Group 3)); “higher than that of the old controls” in test [4] (0.075 mg/kg daily oral, six weeks (Group 4)); “higher than that of the old controls” in test [4] (0.25 mg/kg daily oral, six weeks (Group 5)); “higher than that of the old controls” in test [4] (0.75 mg/kg daily oral, six weeks (Group 6)). Also, the “SOD (Fold increase)” value in the test with SOD [5] (rat brain) and in the test on SOD [5] (rat heart) was 1.0 fold in each case.

Regarding “[Ac] Asp Gly Leu Glu Ala (Ac-DGLEA) [PEP-3]”, the “CAT (Fold increase)” value with CAT (rat brain) and in the test on CAT (rat heart) was 1.0 fold in each case. Also, the “SOD (Fold increase)” value in the test with SOD [5] (rat brain) is recorded as 1.0 fold; in the test on SOD [5] (rat heart) it was 1.2 fold.

Take “[Ac] Asp Gly Glu Ala Leu (Ac-DGEAL) [PEP-2]”: the “Fold-Increase in SOD Expression” value is 2 fold and 1.8 fold with SOD-1 (1 ng/ml); 1.9 fold in the test with SOD-1 (10 ng/ml); 2.1 fold with SOD-1 (100 ng/ml).
